Holding throughout (type): cell-based
In test [1] the test system is human leukemia cells U937. The test can be described thus: Cell viability test (Resazurin), U937 cells. Conditions: for IC50: Homo sapiens. On the procedure: (§1) Cell viability was determined with Resazurin (at a final concentration of 25 μg/mL).
Test [2] has as its system human liver cancer cells Mahlavu. The test can be described thus: Cell viability test (Resazurin), Mahlavu cells. To be noted: for IC50: Homo sapiens, Mahlavu; for evaluation of ability to inhibit cell growth activity (IC50): grade of the IC50 of Table 2. The procedure: as §1
On the technique in general: Resazurin is reduced to fluorescent resorufin, in cell work by metabolically active cells.

Test [3] relates to African green monkey kidney cells Vero. Kind of test: Cell viability test (Resazurin), Vero cells. To be noted: for IC50: Chlorocebus sabaeus, Vero. The procedure: as §1
In test [4] the test system is human Glioblastoma cells U87-MG. The test can be described thus: Cell viability test (Resazurin), U87-MG cells. More on the design: evaluation of ability to inhibit cell growth activity (IC50): scale not given here. To be noted: for IC50: Homo sapiens, U-87 MG; for evaluation of ability to inhibit cell growth activity (IC50): grade of the IC50 of Table 2. The procedure: as §1

For test [5], the system named is human breast cancer cells MDA-MB-231. Kind of test: Cell viability test (Resazurin), MDA-MB-231 cells. Also on record: evaluation of ability to inhibit cell growth activity (IC50): scale not given here. To be noted: for IC50: Homo sapiens. The procedure: as §1
In test [6] the test system is human lung cancer cells A549. Kind of test: Cell viability test (Resazurin), A549 cells. Conditions: for IC50: Homo sapiens. Also on record: evaluation of ability to inhibit cell growth activity (IC50): scale not given here. The procedure:
as §1

In test [7] the test system is human colorectal cancer cells SW-480. Kind of test: Cell viability test (Resazurin), SW480 cells. More on the design: evaluation of ability to inhibit cell growth activity (IC50): scale not given here. To be noted: for IC50: Homo sapiens. The procedure:
as §1

Test [8] concerns human breast cancer cells MDA-MB-468. The test can be described thus: Cell viability test (Resazurin), MDA-MB-468 cells. Conditions: for IC50: Homo sapiens. The procedure: as §1
The mark [9] stands for this setting: U-937, 48 h, U937 cells, 48 hours, 0.1% FCS, Resazurin, read-out: inhibitory concentrations of cell growth activity IC50.
Setting [10] is: U-937, U937 cells, grade of the IC50 of Table 2, read-out: evaluation of ability to inhibit cell growth activity (IC50).
Setting [11] is: 48 h, 0.1% FCS, Resazurin, read-out: inhibitory concentrations of cell growth activity IC50.
Where [12] appears, read: grade of the IC50 of Table 2, read-out: evaluation of ability to inhibit cell growth activity (IC50).
Setting [13] is: MDA-MB-231, 48 h, MDA-MB-231 cells, 48 hours, 0.1% FCS, Resazurin, read-out: inhibitory concentrations of cell growth activity IC50.
The mark [14] stands for this setting: MDA-MB-231, MDA-MB-231 cells, grade of the IC50 of Table 2, read-out: evaluation of ability to inhibit cell growth activity (IC50).
The mark [15] stands for this setting: A549, 48 h, A549 cells, 48 hours, 0.1% FCS, Resazurin, read-out: inhibitory concentrations of cell growth activity IC50.
[16] abbreviates: A549, A549 cells, grade of the IC50 of Table 2, read-out: evaluation of ability to inhibit cell growth activity (IC50).
The mark [17] stands for this setting: SW480, 48 h, SW480 cells, 48 hours, 0.1% FCS, Resazurin, read-out: inhibitory concentrations of cell growth activity IC50.
Where [18] appears, read: SW480, SW480 cells, grade of the IC50 of Table 2, read-out: evaluation of ability to inhibit cell growth activity (IC50).
The mark [19] stands for this setting: MDA-MB-468, 48 h, MDA-MB-468 cells, 48 hours, 0.1% FCS, Resazurin, read-out: inhibitory concentrations of cell growth activity IC50.
The mark [20] stands for this setting: MDA-MB-468, MDA-MB-468 cells, grade of the IC50 of Table 2, read-out: evaluation of ability to inhibit cell growth activity (IC50).
Setting [21] is: SW480 cells, grade of the IC50 of Table 2.
Where [22] appears, read: A549 cells, grade of the IC50 of Table 2.
Where [23] appears, read: MDA-MB-468 cells, grade of the IC50 of Table 2.
The mark [24] stands for this setting: MDA-MB-231 cells, grade of the IC50 of Table 2.

From US10344049B2, “Substituted steroids for the treatment of cancer” (AQUAVAN TECHNOLOGY CO., LTD., priority 2017, dated 2019) come the findings set out here.

Read-outs that look alike come from different tables or passages of the source. Some results are limits rather than exact numbers.

With `C[C@H](C/C=C/C(C)(C)O)[C@H]1CC[C@@]2(C)[C@@H]3[C@@H](O)C=C4[C@@H](CC[C@H](O)C4(C)C)[C@]3(C=O)CC[C@]12C` [Compound 1], the IC50 in test [1] (setting [9]) was 36.6 µM; in test [1] (setting [10]), 16 to 64 µM; in test [2] (setting [11]), > 256 µM; in test [2] (setting [12]) it was > 256 µM; in test [3] (setting [11]) it was > 256 µM; in test [3] (setting [12]) it was > 256 µM. The IC50 in test [4] (setting [11]) is 150 µM; in test [4] (setting [12]), 64 to 256 µM; in test [5] (setting [13]), > 256 µM; in test [5] (setting [14]), > 256 µM; in test [6] (setting [15]) it was > 256 µM; in test [6] (setting [16]), > 256 µM. In addition, the IC50 in test [7] (setting [17]), in test [7] (setting [18]), in test [8] (setting [19]) and in test [8] (setting [20]) was > 256 µM in each case.

`CC(C)=C[C@H](O)C[C@@H](C)[C@H]1CC[C@@]2(C)[C@@H]3[C@@H](O)C=C4[C@@H](CC[C@H](O)C4(C)C)[C@]3(C=O)CC[C@]12C` [Compound 2]: the IC50 in test [1] (setting [9]) is 0.05 µM; in test [1] (setting [10]), < 8 µM; in test [2] (setting [11]), 11.3 µM; in test [2] (setting [12]), 8 to 16 µM; in test [3] (setting [11]), 12.8 µM; in test [4] (setting [11]), 7.52 µM. Also, the IC50 in test [4] (setting [12]) is < 8 µM; in test [5] (setting [13]), 4.44 µM; in test [5] (setting [14]), < 8 µM; in test [6] (setting [15]) it was 4.16 µM; in test [6] (setting [16]) it was < 8 µM; in test [7] (setting [17]) it was 13.1 µM. Also, the IC50 was 8 to 16 µM in test [7] (setting [18]), 7.25 µM in test [8] (setting [19]) and < 8 µM in test [8] (setting [20]). The “evaluation of ability to inhibit cell growth activity (IC50)” value in test [2], in test [3] (grade of the IC50 of Table 2) and in test [7] (setting [21]) was “◯” in each case.

Consider `CC(=O)O[C@H]1C=C2[C@@H](CC[C@H](OC(C)=O)C2(C)C)[C@]2(C=O)CC[C@]3(C)[C@@H]([C@H](C)C[C@H](C=C(C)C)OC(C)=O)CC[C@@]3(C)[C@H]12` [Compound 3], for which the IC50 in test [1] (setting [9]) is 3.45 µM; in test [1] (setting [10]), < 8 µM; in test [2] (setting [11]), 23 µM; in test [2] (setting [12]) it was 16 to 64 µM; in test [3] (setting [11]), > 256 µM; in test [3] (setting [12]) it was > 256 µM. Moreover, the IC50 in test [4] (setting [11]) was 6.82 µM; in test [4] (setting [12]), < 8 µM; in test [5] (setting [13]), 5.2 µM; in test [5] (setting [14]), < 8 µM; in test [6] (setting [15]) it was 12.2 µM; in test [6] (setting [16]), 8 to 16 µM. The IC50 was 18.2 µM in test [7] (setting [17]), 16 to 64 µM in test [7] (setting [18]), 10.4 µM in test [8] (setting [19]) and 8 to 16 µM in test [8] (setting [20]). The “evaluation of ability to inhibit cell growth activity (IC50)” value in test [6] (setting [22]) and in test [8] (setting [23]) was “◯” in each case.

Turning to `CC(=O)O[C@H]1C=C2[C@@H](CC[C@H](OC(C)=O)C2(C)C)[C@]2(C=O)CC[C@]3(C)[C@@H]([C@H](C)C/C=C/C(C)(C)O)CC[C@@]3(C)[C@H]12` [Compound 4], the IC50 in test [1] (setting [9]) is 8.08 µM; in test [1] (setting [10]), 8 to 16 µM; in test [2] (setting [11]), 29.4 µM; in test [2] (setting [12]), 16 to 64 µM; in test [3] (setting [11]) it was 35.3 µM; in test [3] (setting [12]), 16 to 64 µM. Besides, the IC50 in test [4] (setting [11]) is 14.4 µM; in test [4] (setting [12]) it was 8 to 16 µM; in test [5] (setting [13]), 12.1 µM; in test [5] (setting [14]) it was 8 to 16 µM; in test [6] (setting [15]), 12.9 µM; in test [6] (setting [16]), 8 to 16 µM. Besides, the IC50 in test [7] (setting [17]) was 13 µM; in test [7] (setting [18]) it was 8 to 16 µM; in test [8] (setting [19]), 18.6 µM; in test [8] (setting [20]) it was 16 to 64 µM. Further, the “evaluation of ability to inhibit cell growth activity (IC50)” value is listed as “◯” in test [1] (U937 cells, grade of the IC50 of Table 2); “◯” in test [4]; “◯” in test [5] (setting [24]); “◯” in test [6] (setting [22]); “◯” in test [7] (setting [21]).

Regarding `CC(=O)O[C@H]1C=C2[C@@H](CC[C@H](OC(C)=O)C2(C)C)[C@]2(C=O)CC[C@]3(C)[C@@H]([C@H](C)C[C@@H](O)C=C(C)C)CC[C@@]3(C)[C@H]12` [Compound 5], the IC50 was 3.67 µM in test [1] (setting [9]); < 8 µM in test [1] (setting [10]); 18.5 µM in test [2] (setting [11]); 16 to 64 µM in test [2] (setting [12]); 25.3 µM in test [3] (setting [11]); 16 to 64 µM in test [3] (setting [12]). Besides, the IC50 in test [4] (setting [11]) is 8.8 µM; in test [4] (setting [12]), 8 to 16 µM; in test [5] (setting [13]), 8.07 µM; in test [5] (setting [14]), 8 to 16 µM; in test [6] (setting [15]), 12 µM; in test [6] (setting [16]), 8 to 16 µM. The IC50 in test [7] (setting [17]) is 16.4 µM; in test [7] (setting [18]), 16 to 64 µM; in test [8] (setting [19]) it was 16.8 µM; in test [8] (setting [20]), 16 to 64 µM. For the same molecule, the “evaluation of ability to inhibit cell growth activity (IC50)” value in test [4], in test [5] (setting [24]) and in test [6] (setting [22]) was “◯” each time.

For the molecule `CC(=O)O[C@H]1CC[C@@H]2C(=C[C@H](O)[C@@H]3[C@@]2(C=O)CC[C@]2(C)[C@@H]([C@H](C)C[C@H](C=C(C)C)OC(C)=O)CC[C@@]32C)C1(C)C` [Compound 6], the IC50 in test [1] (setting [9]) is 1.57 µM; in test [1] (setting [10]), < 8 µM; in test [2] (setting [11]), 16.2 µM; in test [2] (setting [12]), 16 to 64 µM; in test [3] (setting [11]) it was 23.1 µM; in test [3] (setting [12]), 16 to 64 µM. For the same molecule, the IC50 in test [4] (setting [11]) was 23.4 µM; in test [4] (setting [12]), 16 to 64 µM; in test [5] (setting [13]), 23.5 µM; in test [5] (setting [14]), 16 to 64 µM; in test [6] (setting [15]), 5.43 µM; in test [6] (setting [16]), < 8 µM. Further, the IC50 in test [7] (setting [17]) is 14.9 µM; in test [7] (setting [18]), 8 to 16 µM; in test [8] (setting [19]) it was 14 µM; in test [8] (setting [20]) it was 8 to 16 µM. The “evaluation of ability to inhibit cell growth activity (IC50)” value in test [7] (setting [21]) and in test [8] (setting [23]) was “◯” in each case.

`CC(=O)O[C@H]1C=C2[C@@H](CC[C@H](O)C2(C)C)[C@]2(C=O)CC[C@]3(C)[C@@H]([C@H](C)C[C@H](C=C(C)C)OC(C)=O)CC[C@@]3(C)[C@H]12` [Compound 7]: the IC50 in test [1] (setting [9]) is 5.52 µM; in test [1] (setting [10]), < 8 µM; in test [2] (setting [11]), 11.9 µM; in test [2] (setting [12]), 8 to 16 µM; in test [3] (setting [11]) it was 23.2 µM; in test [3] (setting [12]), 16 to 64 µM. Moreover, the IC50 in test [4] (setting [11]) is 8.51 µM; in test [4] (setting [12]), 8 to 16 µM; in test [5] (setting [13]), 6 µM; in test [5] (setting [14]) it was < 8 µM; in test [6] (setting [15]), 6.26 µM; in test [6] (setting [16]), < 8 µM. Moreover, the IC50 is 13.5 µM in test [7] (setting [17]), 8 to 16 µM in test [7] (setting [18]), 13.9 µM in test [8] (setting [19]) and 8 to 16 µM in test [8] (setting [20]). The “evaluation of ability to inhibit cell growth activity (IC50)” value in test [2], in test [4], in test [7] (setting [21]) and in test [8] (setting [23]) was “◯” each time.
